From patent publication US7737182B2, “Pharmaceuticals for xerosis” (Taisho Pharmaceutical Co., Ltd., priority 2001, dated 2010)

Assays:
[1] = system: Fifty-week-old BALB/c male mice; experiment: Aged mouse skin's barrier function, treatment test, TEWL (Test Example 7); format: in vivo; settings: 50-week-old mice; 0.0001% in ethanol, 200 μL, once a day for 3 days
Experimental: Fifty-week-old BALB/c male mice (eight in each group) were shaven in a rostral dorsolateral area of 4 cm^2 (2 cm×2 cm) with electric clippers. Starting on the next day, a solvent (ethanol, 200 μL) or a drug dissolved in the solvent (compound No. 7 or PGD2, each being at 0.0001% in an amount of 200 μL) was applied to the shaven site for 3 days on once-a-day basis.
On the day next to the third application of the solvent or drug, TEWL at the same site was measured with Tewameter (TM210 of Courage & Khazawa, Germany) to evaluate the drug's action.

[2] = system: BALB/c male mice; experiment: Mouse skin's barrier function, preventive test, TEWL (Test Example 6); format: in vivo; settings: cohabitation with dermatitic NC/Nga mice; 0.01% in ethanol, 100 μL, once a day for 7 days
Experimental: Six-week-old BALB/c male mice in groups of six were shaven in a rostral dorsolateral area of 4 cm^2 (2 cm×2 cm) with electric clippers and kept in the same cage as NC/Nga mice that had developed dermatitis. From the day next to the start of cohabitation, a solvent (ethanol, 100 μL) or a drug dissolved in the solvent (compound No. 7, PGD2, PGF2α, or PGE1, all being at 0.01% in an amount of 100 μL) was applied to the shaven site for 7 days on once-a-day basis.
On the day next to the seventh application of the solvent or drug, the transepidermal water loss (TEWL) at the same site was measured with Tewameter (TM210 of Courage & Khazawa, Germany) to evaluate the drug's action, with the solvent-applied group being used as the control group.

[3] = target: T1, prostaglandin D receptor (Homo sapiens, UniProt Q13258); experiment: Antagonism by BW A868C of the suppression of ADP-induced human platelet aggregation; format: cell-based; settings: final concentration 1000 nmol/L, human PRP, ADP 3 μmol/L
T1 construct: separate the supernatant (PRP, or platelet-rich plasma); endogenous in cells; host or cells: human platelets (platelet-rich plasma from healthy male donors)
T1 sequence (Q13258 1-359): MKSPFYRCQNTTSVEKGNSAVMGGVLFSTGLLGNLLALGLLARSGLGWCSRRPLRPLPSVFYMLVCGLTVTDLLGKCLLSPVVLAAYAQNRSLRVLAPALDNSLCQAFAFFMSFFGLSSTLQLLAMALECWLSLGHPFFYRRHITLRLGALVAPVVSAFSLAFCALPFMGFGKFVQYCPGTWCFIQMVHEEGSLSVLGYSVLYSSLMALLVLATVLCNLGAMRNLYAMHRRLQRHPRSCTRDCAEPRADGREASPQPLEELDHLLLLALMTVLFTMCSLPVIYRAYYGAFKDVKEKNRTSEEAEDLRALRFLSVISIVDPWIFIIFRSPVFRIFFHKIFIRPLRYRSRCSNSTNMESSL
Experimental: The prostaglandin D receptor selective antagonist used in the test was ((+/−)-3-benzyl-5-(6-carboxyhexyl)-1-(2-cyclohexyl-2-hydroxyethylamino)-hydantoin) (hereunder designated BW A868C) (Sigma-Aldrich Japan K.K.)
BW A868C was diluted with ethanol to final concentrations of 0.03 μmol/L, 0.1 μmol/L, 0.3 μmol/L, 1 μmol/L, 3 μmol/L and 10 μmol/L.
Compound No. 7 and PGD2 were diluted with ethanol to 287 nmol/L and 300 nmol/L, respectively, for subsequent use.
Blood was taken from the cubital veins of human healthy males and sampled into a tube containing 3.13% sodium citrate. The blood sample was centrifuged at 1,000 rpm for 10 minutes at 20° C. to separate the supernatant (PRP, or platelet-rich plasma) and the residue was further centrifuged at 3,000 rpm for 10 minutes at 20° C. to separate the supernatant (PPP, or platelet-poor plasma). The platelet count of PRP was appropriately diluted with PPP to 30×10^4 platelets/μL for subsequent use.
Platelet aggregation was measured with a platelet aggregation measuring instrument (PAM-8C; MC MEDICAL Co., LTD.) by the Born method (Nature, vol. 194, p. 927, 1962). A portion (273 μL) of PRP (for the BW A868C groups, 1 μL of BW A868C was added at varying concentrations) was preincubated at 37° C. for 3 minutes with stirring at 1,000 rpm. After the preincubation, 1 μL of ethanol or a test substance (compound No. 7: final concentration at 95.7 nmol/L; PGD2: final concentration at 1000 nmol/L) was added and the mixture was incubated at 37° C. for 3 minutes with stirring at 1000 rpm. After the incubation, 25 μL of ADP (final concentration at 3 μmol/L) was added to induce platelet aggregation and a maximum percent aggregation for 5 minutes was measured.

[4] = system: human platelets; experiment: Suppression of ADP-induced aggregation of human platelets; format: cell-based; settings: human platelet-rich plasma, ADP (3 μM), Born method
Experimental: (A) Using the active ingredient of the present invention (compound No. 7) and PGD2 as a control for comparison, prostaglandin D receptor binding selectivity was determined with reference to the platelet aggregation suppressing action as the prostaglandin D receptor agonist action. 1. Human Platelet Aggregation Suppressing Action Suppression of ADP-Induced Aggregation of Human Platelets
The test was performed on purchased platelet-rich plasma (PRP) (6×10^8 platelets/mL) and platelet aggregation was measured based on the Born method (Nature, vol. 194, p. 927, 1962). To 100 μL of PRP, 5 μL of a 1 nM-3 μM test drug solution in ethanol was added and the mixture was incubated at 37° C. for 1 minute with stirring at 1000 rpm. To the resulting mixture, 5 μL of an aggregation inducer [ADP (3 μM)] was added to induce platelet aggregation and a maximum percent aggregation (a maximum change in light transmittance that occurred within 5 minutes after the induction of platelet aggregation) was determined by an aggregometer. The percent suppression of aggregation by each test drug was calculated from the maximum percent aggregation by the test drug as relative to the maximum percent aggregation by ethanol instead of the test drug solution and IC50 values were determined from the constructed dose-response curve.

[5] = system: BALB/c male mice; experiment: Mouse skin's barrier function, treatment test, TEWL (Test Example 5); format: in vivo; settings: barrier destroyed with acetone/diethyl ether; 0.01% in ethanol, 100 μL, once a day for 2 days
Experimental: Six-week-old BALB/c male mice in groups of eight were shaven in a rostral dorsolateral area of 4 cm^2 (2 cm×2 cm) with electric clippers and the shaven area was covered for 60 seconds with an absorbent cotton (2 cm×2 cm) impregnated with a 1:1 liquid mixture of acetone and diethyl ether. This treatment for destroying the skin's barrier function was performed for 3 consecutive days on once-a-day basis. Starting on the day next to completion of the treatment for barrier destruction at day 3, a solvent (ethanol, 100 μL) or a drug dissolved in the solvent (compound No. 7, PGD2, PGF2α, or PGE1, all being at 0.01% in an amount of 100 μL) was applied to the barrier destroyed site for 2 days on once-a-day basis. On the day next to the second application of the solvent or drug, the transepidermal water loss (TEWL) at the same site was measured with Tewameter (TM210 of Courage & Khazawa, Germany) to evaluate the drug's action.

[6] = system: guinea pig platelets; experiment: Suppression of ADP-induced aggregation of guinea pig platelets; format: cell-based; settings: guinea pig platelet-rich plasma, ADP (3 μM)
Experimental: Ten-week-old Hartley male guinea pigs were anesthetized with pentobarbital (30 mg/kg, i.p. injected) and a total of 20 mL of blood was sampled into a syringe containing 2.0 mL of 3.8% sodium citrate. The blood was immediately centrifuged at 900 rpm for 10 minutes at 20° C. to recover the supernatant PRP. By further centrifugation at 3000 rpm for 10 minutes at 20° C., the supernatant PPP was recovered. The platelet count of PRP was diluted with PPP to 30×10^4 platelets/μL for subsequent use.
For platelet aggregation measurement, a platelet aggregation measuring instrument (PAM-8C) was employed. To 274 μL of PRP, 1 μL of a 0.287-95.7 nM test drug solution in ethanol was added and the mixture was incubated at 37° C. for 3 minutes with stirring at 1000 rpm. After the incubation, 25 μL of ADP (3 μM) was added to induce platelet aggregation and a maximum percent aggregation for 5 minutes was measured.
The percent suppression of aggregation by each test drug was calculated from the maximum percent aggregation by the test drug as relative to the maximum percent aggregation by ethanol instead of the test drug solution and IC50 values were determined from the constructed dose-response curve.

Compound: CCCCC[C@H](O)/C=C/[C@H]1C(=O)C[C@H](O)[C@@H]1C/C=C\CCCC(=O)O [PGD2, prostaglandin D2, reference compound]
- transepidermal water loss (TEWL) compared to the control group [1]: no significant difference from the control group
- transepidermal water loss (TEWL) compared to the control group [2]: significant decrease in TEWL
- platelet aggregation suppressing action compared with control group (ethanol) [3]: significant platelet aggregation suppressing action
- IC50 [4]: 11 nM
- transepidermal water loss (TEWL) compared to the solvent-applied control group [5]: no significant difference from the control group
- IC50 [6]: 54.3 ± 23 nM
